The subject of the first experiment is NCI-H520. The experiment is described as follows: relative viability (nuclei count vs DMSO), 5 days (fraction); higher = more cells survive. To be noted: first compound 8 µM. The essentials: (§1)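 Dosing by pin tool came one day after lung cancer cell lines were seeded in 1536-well plates, using either one drug or a fixed anchor-drug dose plus five library-drug doses (not always all listed) in √10 steps. After 5 days, nuclei were counted on 4× images. Relative viability is treated-well nuclei count divided by vehicle-well nuclei count, and values are medians of duplicate plates.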
Take `Nc1cccc2c1CN(C1CCC(=O)NC1=O)C2=O` (configuration not stated) [Lenalidomide] + CC(=O)c1c(C)c2cnc(Nc3ccc(N4CCNCC4)cn3)nc2n(C2CCCC2)c1=O [Palbociclib] (partner 0.5 µM): the relative viability amounted to 0.2.

`Nc1cccc2c1CN(C1CCC(=O)NC1=O)C2=O` (configuration not stated) [Lenalidomide] + O=C(CCCCCCC(=O)Nc1ccccc1)NO [Vorinostat] (partner 1 µM) displayed a relative viability of 0.698.

The molecule `Nc1cccc2c1CN(C1CCC(=O)NC1=O)C2=O` (configuration not stated) [Lenalidomide] + COc1cccc2cc(-c3nc([C@H]4CC[C@H](C(=O)O)CC4)n4ncnc(N)c34)[nH]c12 [OSI-027] (partner 0.5 µM) came in with a relative viability of 0.281.

In the next experiment the test system is NCI-H647. The experiment is described as above. To be noted: first compound 0.253 µM. The essentials:
as §1
The molecule `Nc1cccc2c1CN(C1CCC(=O)NC1=O)C2=O` (configuration not stated) [Lenalidomide] + Nc1ncn([C@H]2C[C@H](O)[C@@H](CO)O2)c(=O)n1 [Decitabine] (partner 2 µM) yielded a relative viability of 0.426.

Regarding `Nc1cccc2c1CN(C1CCC(=O)NC1=O)C2=O` (configuration not stated) [Lenalidomide] + N=C(N)NC(=N)NCCc1ccccc1 [Phenformin] (partner 250 µM), the relative viability came out at 0.438.

On to `Nc1cccc2c1CN(C1CCC(=O)NC1=O)C2=O` (configuration not stated) [Lenalidomide] + Nc1nc2[nH]cc(CCc3ccc(C(=O)N[C@@H](CCC(=O)O)C(=O)O)cc3)c2c(=O)[nH]1 [Pemetrexed] (partner 0.2 µM), for which the relative viability came to 0.173.

`Nc1cccc2c1CN(C1CCC(=O)NC1=O)C2=O` (configuration not stated) [Lenalidomide] + CC(=O)c1c(C)c2cnc(Nc3ccc(N4CCNCC4)cn3)nc2n(C2CCCC2)c1=O [Palbociclib] (partner 0.5 µM): the relative viability was 0.467.

As for `Nc1cccc2c1CN(C1CCC(=O)NC1=O)C2=O` (configuration not stated) [Lenalidomide] + O=C(CCCCCCC(=O)Nc1ccccc1)NO [Vorinostat] (partner 1 µM), the relative viability amounted to 0.415.

The molecule `Nc1cccc2c1CN(C1CCC(=O)NC1=O)C2=O` (configuration not stated) [Lenalidomide] + COc1cccc2cc(-c3nc([C@H]4CC[C@H](C(=O)O)CC4)n4ncnc(N)c34)[nH]c12 [OSI-027] (partner 0.5 µM) displayed a relative viability of 0.587.

Still in this experiment, the particulars now being: first compound 0.8 µM.
`Nc1cccc2c1CN(C1CCC(=O)NC1=O)C2=O` (configuration not stated) [Lenalidomide] + Nc1ncn([C@H]2C[C@H](O)[C@@H](CO)O2)c(=O)n1 [Decitabine] (partner 2 µM) had a relative viability of 0.318.

Molecule `Nc1cccc2c1CN(C1CCC(=O)NC1=O)C2=O` (configuration not stated) [Lenalidomide] + N=C(N)NC(=N)NCCc1ccccc1 [Phenformin] (partner 250 µM) yielded a relative viability of 0.487.

For the molecule `Nc1cccc2c1CN(C1CCC(=O)NC1=O)C2=O` (configuration not stated) [Lenalidomide] + Nc1nc2[nH]cc(CCc3ccc(C(=O)N[C@@H](CCC(=O)O)C(=O)O)cc3)c2c(=O)[nH]1 [Pemetrexed] (partner 0.2 µM), the relative viability was 0.164.

`Nc1cccc2c1CN(C1CCC(=O)NC1=O)C2=O` (configuration not stated) [Lenalidomide] + CC(=O)c1c(C)c2cnc(Nc3ccc(N4CCNCC4)cn3)nc2n(C2CCCC2)c1=O [Palbociclib] (partner 0.5 µM) gave a relative viability of 0.36.

The molecule `Nc1cccc2c1CN(C1CCC(=O)NC1=O)C2=O` (configuration not stated) [Lenalidomide] + O=C(CCCCCCC(=O)Nc1ccccc1)NO [Vorinostat] (partner 1 µM) showed a relative viability of 0.68.

`Nc1cccc2c1CN(C1CCC(=O)NC1=O)C2=O` (configuration not stated) [Lenalidomide] + COc1cccc2cc(-c3nc([C@H]4CC[C@H](C(=O)O)CC4)n4ncnc(N)c34)[nH]c12 [OSI-027] (partner 0.5 µM) showed a relative viability of 0.551.

Still in this experiment, the particulars now being: first compound 2.53 µM.
Molecule `Nc1cccc2c1CN(C1CCC(=O)NC1=O)C2=O` (configuration not stated) [Lenalidomide] + Nc1ncn([C@H]2C[C@H](O)[C@@H](CO)O2)c(=O)n1 [Decitabine] (partner 2 µM) had a relative viability of 0.428.

Turning to `Nc1cccc2c1CN(C1CCC(=O)NC1=O)C2=O` (configuration not stated) [Lenalidomide] + N=C(N)NC(=N)NCCc1ccccc1 [Phenformin] (partner 250 µM), the relative viability turned out to be 0.703.

The molecule `Nc1cccc2c1CN(C1CCC(=O)NC1=O)C2=O` (configuration not stated) [Lenalidomide] + Nc1nc2[nH]cc(CCc3ccc(C(=O)N[C@@H](CCC(=O)O)C(=O)O)cc3)c2c(=O)[nH]1 [Pemetrexed] (partner 0.2 µM) gave a relative viability of 0.178.

`Nc1cccc2c1CN(C1CCC(=O)NC1=O)C2=O` (configuration not stated) [Lenalidomide] + CC(=O)c1c(C)c2cnc(Nc3ccc(N4CCNCC4)cn3)nc2n(C2CCCC2)c1=O [Palbociclib] (partner 0.5 µM): the relative viability turned out to be 0.402.

Regarding `Nc1cccc2c1CN(C1CCC(=O)NC1=O)C2=O` (configuration not stated) [Lenalidomide] + O=C(CCCCCCC(=O)Nc1ccccc1)NO [Vorinostat] (partner 1 µM), the relative viability is 0.525.

`Nc1cccc2c1CN(C1CCC(=O)NC1=O)C2=O` (configuration not stated) [Lenalidomide] + COc1cccc2cc(-c3nc([C@H]4CC[C@H](C(=O)O)CC4)n4ncnc(N)c34)[nH]c12 [OSI-027] (partner 0.5 µM) registered a relative viability of 1.02.

Still in this experiment, the particulars now being: first compound 8 µM.
`Nc1cccc2c1CN(C1CCC(=O)NC1=O)C2=O` (configuration not stated) [Lenalidomide] + Nc1ncn([C@H]2C[C@H](O)[C@@H](CO)O2)c(=O)n1 [Decitabine] (partner 2 µM) returned a relative viability of 0.446.

Consider `Nc1cccc2c1CN(C1CCC(=O)NC1=O)C2=O` (configuration not stated) [Lenalidomide] + N=C(N)NC(=N)NCCc1ccccc1 [Phenformin] (partner 250 µM), for which the relative viability stood at 0.581.

In the case of `Nc1cccc2c1CN(C1CCC(=O)NC1=O)C2=O` (configuration not stated) [Lenalidomide] + Nc1nc2[nH]cc(CCc3ccc(C(=O)N[C@@H](CCC(=O)O)C(=O)O)cc3)c2c(=O)[nH]1 [Pemetrexed] (partner 0.2 µM), the relative viability worked out at 0.182.

`Nc1cccc2c1CN(C1CCC(=O)NC1=O)C2=O` (configuration not stated) [Lenalidomide] + CC(=O)c1c(C)c2cnc(Nc3ccc(N4CCNCC4)cn3)nc2n(C2CCCC2)c1=O [Palbociclib] (partner 0.5 µM) displayed a relative viability of 0.287.

`Nc1cccc2c1CN(C1CCC(=O)NC1=O)C2=O` (configuration not stated) [Lenalidomide] + O=C(CCCCCCC(=O)Nc1ccccc1)NO [Vorinostat] (partner 1 µM) had a relative viability of 0.653.

The molecule `Nc1cccc2c1CN(C1CCC(=O)NC1=O)C2=O` (configuration not stated) [Lenalidomide] + COc1cccc2cc(-c3nc([C@H]4CC[C@H](C(=O)O)CC4)n4ncnc(N)c34)[nH]c12 [OSI-027] (partner 0.5 µM) showed a relative viability of 0.744.

The test system of the next experiment is SK-MES-1. The experiment is described as above. To be noted: first compound 0.253 µM. The essentials: as §1
The molecule `Nc1cccc2c1CN(C1CCC(=O)NC1=O)C2=O` (configuration not stated) [Lenalidomide] + Nc1ncn([C@H]2C[C@H](O)[C@@H](CO)O2)c(=O)n1 [Decitabine] (partner 2 µM) came in with a relative viability of 0.362.

As for `Nc1cccc2c1CN(C1CCC(=O)NC1=O)C2=O` (configuration not stated) [Lenalidomide] + N=C(N)NC(=N)NCCc1ccccc1 [Phenformin] (partner 250 µM), the relative viability amounted to 0.556.

`Nc1cccc2c1CN(C1CCC(=O)NC1=O)C2=O` (configuration not stated) [Lenalidomide] + Nc1nc2[nH]cc(CCc3ccc(C(=O)N[C@@H](CCC(=O)O)C(=O)O)cc3)c2c(=O)[nH]1 [Pemetrexed] (partner 0.2 µM) had a relative viability of 0.91.

Molecule `Nc1cccc2c1CN(C1CCC(=O)NC1=O)C2=O` (configuration not stated) [Lenalidomide] + CC(=O)c1c(C)c2cnc(Nc3ccc(N4CCNCC4)cn3)nc2n(C2CCCC2)c1=O [Palbociclib] (partner 0.5 µM) registered a relative viability of 0.317.

`Nc1cccc2c1CN(C1CCC(=O)NC1=O)C2=O` (configuration not stated) [Lenalidomide] + O=C(CCCCCCC(=O)Nc1ccccc1)NO [Vorinostat] (partner 1 µM) yielded a relative viability of 0.99.

The values above are taken from the supplement of paper PMC10307832.
